Reference: patent publication US4145540A, “7β-Phosphoramido-7α-methoxycephalosporanic acid derivatives” (Takeda Chemical Industries, Ltd., priority 1975, dated 1979)

What was measured:
Test in all cases: antibiotic activity (MIC)
Type in all cases: cell-based
[1] = system: E. coli 0-111; conditions: Escherichia coli, 0111
Text: (§1) The antibiotic activity of sodium 7α-methoxy-7β-(2-aminothiazol-4-ylacetamido)-3-(1-methyl-1H-tetrazol-5-ylthiomethyl)-3-cephem-4-carboxylate obtained in the reference experiment is shown as follows.

[2] = system: E. coli NIHJ; conditions: Escherichia coli
Text: as §1

[3] = system: E. coli T-7; conditions: Escherichia coli, T7
Text: as §1

[4] = system: K. pneumoniae DT; conditions: Klebsiella pneumoniae
Text: as §1

[5] = system: K. pneumoniae GN 3835; conditions: Klebsiella pneumoniae, GN3835
Text: as §1

[6] = system: P. vulgaris GN 4413; conditions: Proteus vulgaris, GN4413
Text: as §1

[7] = system: Ps. aeruginosae PM3; conditions: Pseudomonas aeruginosa
Text: as §1

[8] = system: S. aureus 1840; conditions: Staphylococcus aureus
Text: as §1

[9] = system: S. aureus 209p; conditions: Staphylococcus aureus
Text: as §1

[10] = system: S. aureus Fs 40204; conditions: Staphylococcus aureus, FS40204
Text: as §1

[11] = system: Serr. marcescens IFO 12648; conditions: Serratia marcescens, IFO12648
Text: as §1

[12] = system: Serratia TN0024
Text: as §1

CO[C@@]1(NC(=O)Cc2csc(N)n2)C(=O)N2C(C(=O)O)=C(CSc3nnnn3C)CS[C@@H]21 [Sodium 7α-methoxy-7β-(2-aminothiazol-4-ylacetamido)-3-(1-methyl-1H-tetrazol-5-ylthiomethyl)-3-cephem-4-carboxylate]
MIC [1]: 0.78 µg/mL | MIC [2]: 1.56 µg/mL | MIC [3]: 6.25 µg/mL | MIC [4]: 0.78 µg/mL | MIC [5]: 1.56 µg/mL | MIC [6]: 6.25 µg/mL | MIC [7]: 6.25 µg/mL | MIC [8]: 3.13 µg/mL | MIC [9]: 1.56 µg/mL | MIC [10]: 3.13 µg/mL | MIC [11]: 6.25 µg/mL | MIC [12]: 6.25 µg/mL
